Patent EP2790511B1 (Merck Sharp & Dohme Corp., priority 2011, dated 2013)

Target: T1, hROMK (hKir1.1) (Homo sapiens, UniProt P48048)
T1 construct: expressed in transfected cells
T1 sequence (P48048 1-391): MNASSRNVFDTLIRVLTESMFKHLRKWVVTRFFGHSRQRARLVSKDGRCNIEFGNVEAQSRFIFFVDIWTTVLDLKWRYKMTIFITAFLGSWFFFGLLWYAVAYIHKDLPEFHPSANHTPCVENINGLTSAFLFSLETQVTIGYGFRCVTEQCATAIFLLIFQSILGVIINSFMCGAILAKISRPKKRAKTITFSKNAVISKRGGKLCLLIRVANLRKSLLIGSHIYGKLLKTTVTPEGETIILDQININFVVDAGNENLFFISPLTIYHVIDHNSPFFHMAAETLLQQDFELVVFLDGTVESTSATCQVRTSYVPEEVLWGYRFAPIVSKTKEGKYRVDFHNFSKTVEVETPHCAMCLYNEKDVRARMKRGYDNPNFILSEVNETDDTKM
Experiment: Thallium Flux Assay
Assay type: cell-based
Conditions: HEK293 cells stably expressing hROMK (hKir1.1), FLIPR-Tetra; read-out: Thallium Flux IC50
How it was run: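 HEK293 cells stably expressing hROMK, loaded with FluxOR dye 90 min at ambient temperature, then compound 30 min with 0.3 mM ouabain in probenecid buffer pH 7.4.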

| Compound | IC50 [nM] |
| --- | --- |
| Cc1c([C@@H]2CN3CCN(C(=O)Cc4cccc(-n5cnnn5)n4)C[C@H]3CO2)ccc(F)c1C#N [Example 98, 6-fluoro-2-methyl-3-[(3R,9aS)-8-{[6-(1H-tetrazol-1-yl)pyridin-2-yl]acetyl}octahydropyrazino[2,1-c][1,4]oxazin-3-yl]benzonitrile] | 560 |
| Cc1c([C@@H]2CN3CCN(C(=O)Cc4ccnc(-n5cnnn5)c4)C[C@H]3CO2)ccc(F)c1C#N [Example 99, 6-fluoro-2-methyl-3-[(3R,9aS)-8-{[2-(1H-tetrazol-1-yl)pyridin-4-yl]acetyl}octahydropyrazino[2,1-c][1,4]oxazin-3-yl]benzonitrile] | 340 |
| Cc1c([C@H]2CN3CCN(C(=O)Cc4ccnc(-n5cnnn5)c4)C[C@H]3CO2)ccc(F)c1C#N [Example 100] | 190 |
| Cc1c([C@H]2CN3CCN(C(=O)Cc4cncc(-n5cnnn5)c4)C[C@H]3CO2)ccc(F)c1C#N [Example 101, 6-fluoro-2-methyl-3-[(3S,9aS)-8-{[5-(1H-tetrazol-1-yl)pyridin-3-y]acetyl}octahydropyrazino[2,1-c][1,4]oxazin-3-yl]benzonitrile] | 180 |
| O=C(Cc1ccc(-n2cnnn2)nc1)N1CCN2C[C@@H](c3cccc(-n4cnnn4)c3)OC[C@@H]2C1 [Example 103, (3R,9aS)-3-[3-(1H-tetrazol-1-yl)phenyl]-8-{[6-(1H-tetrazol-1-vl)pvridin-3-yl]acetyl}octahydropyrazino[2,1-c][1,4]oxazine] | 340 |
| Cc1c([C@@H]2CN3CCN(C(=O)Cc4ccc(-n5cnnn5)nc4)C[C@H]3CO2)cccc1-n1cnnn1 [Example 104, (3R,9aS)-3-[2-methyl-3-(1H-tetrazol-1-yl)phenyl]-8-{[6-(1H-tetrazol-1-yl)pyridin-3-yl]acetyl}octahydropyrazino[2,1-c][1,4]oxazine] | 480 |
| C[C@@H]1Cc2cc([C@]3(C)CN4CCN(C(=O)Cc5ccc(-n6cnnn6)nc5)C[C@H]4CO3)ccc2C(=O)O1 [Example 105, (3R)-3-methyl-6-[(3R,9a,S)-3-methyl-8-{[6-(1H-tetrazol-1-vl)pvridin-3-yl]acetyl}octahydropyrazino[2,1-c][1,4]oxazin-3-yl]-3,4-dihydro-1H-isochromen-1-one] | 350 |
| C[C@H]1Cc2cc([C@]3(C)CN4CCN(C(=O)Cc5ccc(-n6cnnn6)nc5)C[C@H]4CO3)ccc2C(=O)O1 [Example 106, (3S)-3-methyl-6-[(3R,9aS)-3-methyl-8-{[6-(1H-tetrazol-1-yl)pyridin-3-yl]acetyl}octahydropyrazino[2,1-c][1,4]oxazin-3-yl]-3,4-dihydro-1H-isochromen-1-one] | 420 |
| N#Cc1c(F)cc([C@@H]2CN3CCN(C(=O)Cc4ccc(-n5cnnn5)nc4)C[C@@H]3CO2)cc1F [Example 107, 2,6-difluoro-4-[(3R,9aR)-8-{[6-(1H-tetrazol-1-yl)pyridin-3-yl]acetyl}octahydropyrazino[2,1-c][1,4]oxazin-3-yl]benzonitrile] | 170 |
| N#Cc1c(F)cc([C@H]2CN3CCN(C(=O)Cc4ccc(-n5cnnn5)nc4)C[C@@H]3CO2)cc1F [Example 108, 2,6-difluoro-4-[(3S,9aR)-8-{[6-(1H-tetrazol-1-yl)pyridin-3-yl]acetyl}octahydropyrazino[2,1-c][1,4]oxazin-3-yl]benzonitrile] | 490 |
| N#Cc1c(F)cc([C@H]2CN3CCN(C(=O)Cc4ccc(-n5cnnn5)nc4)C[C@H]3CO2)cc1F [Example 109, 2,6-difluoro-4-[(3S,9aS)-8-{[6-(1H-tetrazol-1-yl)pyridin-3-yl]acetyl}octahydropyrazino[2,1-c][1,4]oxazin-3-yl]benzonitrile] | 190 |
| N#Cc1c(F)cc([C@@H]2CN3CCN(C(=O)Cc4ccc(-n5cnnn5)nc4)C[C@H]3CO2)cc1F [Example 110, 2,6-difluoro-4-[(3R,9aS)-8-{[6-(1H-tetrazol-1-yl)pyridin-3-yl]acetyl}octahydropyrazino[2,1-c][1,4]oxazin-3-yl]benzonitrile] | 370 |
| COc1cc([C@@H]2CN3CCN(C(=O)Cc4ccc(-n5cnnn5)nc4)C[C@@H]3CO2)cc(F)c1C#N [Example 111, 2-fluoro-6-methoxy-4-[(3R,9aR)-8-{[6-(1H-tetrazol-1-vl)pvridin-3-yl]acetyl}octahydropyrazino[2,1-c][1,4]oxazin-3-yl]benzonitrile] | 170 |
| COc1cc([C@H]2CN3CCN(C(=O)Cc4ccc(-n5cnnn5)nc4)C[C@@H]3CO2)cc(F)c1C#N [Example 112, 2-fluoro-6-methoxy-4-[(3S,9aR)-8-{[6-(1H-tetrazol-1-vl)pvridin-3-yl]acetyl}octahydropyrazino[2,1-c][1,4]oxazin-3-yl]benzonitrile] | 220 |
| COc1cc([C@H]2CN3CCN(C(=O)Cc4ccc(-n5cnnn5)nc4)C[C@H]3CO2)cc(F)c1C#N [Example 113, 2-fluoro-6-methoxy-4-[(3S,9aS)-8-{[6-(1H-tetrazol-1-vl)pvridin-3-yl]acetyl}octahydropyrazino[2,1-c][1,4]oxazin-3-yl]benzonitrile] | 120 |
| Cc1c(C#N)cccc1[C@@H]1CN2CCN(C(=O)Cc3cnc(-n4cnnn4)nc3)C[C@@H]2CO1 [Example 116, 2-methyl-3-[(3R,9aR)-8-{[2-(1H-tetrazol-1-yl)pyrimidin-5-yl]acetyl}octahydropyrazino[2,1-c] [1,4]oxazin-3-yl]benzonitrile] | 330 |
| Cc1nc(-n2cnnn2)ncc1CC(=O)N1CCN2C[C@@H](c3ccc(F)c(C#N)c3C)OC[C@H]2C1 [Example 120, 6-fluoro-2-methyl-3-[(3R9aR)-8-{[4-methyl-2-(1H-tetrazol-1-yl)pyrimidin-5-yl]acetyl}octahydropyrazino[2,1-c][1,4]oxazin-3-yl]benzonitrile] | 200 |
| Cc1c([C@@H]2CN3CCN(C(=O)Cc4cnc(-n5cnnn5)nc4)C[C@@H]3CO2)ccc2c1COC2=O [Example 122, 4-methyl-5-[(3R,9aR)-8-{[2-(1H-tetrazol-1-yl)pyrimidin-5-yl]acetyl}octahydropyrazino[2,1-c][1,4]oxazin-3-yl]-2-benzofuran-1(3H)-one] | 390 |
| COc1cc(-n2cnnn2)cnc1CC(=O)N1CCN2C[C@@H](c3ccc(F)c(C#N)c3C)OC[C@H]2C1 [Example 124, 6-fluoro-3-[(3R,9aR)-8-{[3-methoxy-5-(1H-tetrazol-1-vl)pvridin-2-yl]acetyl}octahydropyrazino[2,1-c][1,4]oxazin-3-yl]-2-methylbenzonitrile] | 330 |

Same assay, conditions: Thallium Flux IC50

| Compound | IC50 [nM] |
| --- | --- |
| Cc1c([C@@H]2CN3CCN(C(=O)Cc4ccc(-n5cnnn5)nc4)C[C@@H]3CO2)ccc(F)c1C#N [Example 102, 6-fluoro-2-methyl-3-[(3R,9aR)-8-{[6-(1H-tetrazol-1-yl)pyridin-3-yl]acetyl}octahydropyrazino[2,1-c][1,4]oxazin-3-yl]benzonitrile] | 150 |
| COc1cc([C@@H]2CN3CCN(C(=O)Cc4ccc(-n5cnnn5)nc4)C[C@H]3CO2)cc(F)c1C#N [Example 114, 2-fluoro-6-methoxy-4-[(3R,9aS)-8-{[6-(1H-tetrazol-1-vl)pvridin-3-yl]acetyl}octahydropyrazino[2,1-c][1,4]oxazin-3-yl]benzonitrile] | 110 |
| N#Cc1c(F)cc([C@@H]2CN3CCN(C(=O)Cc4cnc(-n5cnnn5)nc4)C[C@@H]3CO2)cc1F [Example 115, 2,6-difluoro-4-[(3R,9aR)-8-{[2-(1H-tetrazol-1-yl)pyrimidin-5-yl]acetyl}octahydropyrazino[2,1-c][1,4]oxazin-3-yl]benzonitrile] | 270 |
| Cc1c(C#N)cccc1[C@@H]1CN2CCN(C(=O)Cc3ccc(-n4cnnn4)nc3)C[C@@H]2CO1 [Example 117, 2-methyl-3-[(3R,9aR)-8-{[6-(1H-tetrazol-1-yl)pyridin-3-yl]acetyl}octahydropyrazino[2,1-c] [1,4]oxazin-3-yl]benzonitrile] | 220 |
| Cc1nc(-n2cnnn2)ncc1CC(=O)N1CCN2C[C@@H](c3ccc(F)c(C#N)c3C)OC[C@@H]2C1 [Example 118, 6-fluoro-2-methyl-3-[(3R,9aS)-8-{[4-methyl-2-(1H-tetrazol-1-vl)pvrimidin-5-yl]acetyl}octahydropyrazino[2,1-c][1,4]oxazin-3-yl]benzonitrile] | 120 |
| Cc1nc(-n2cnnn2)ncc1CC(=O)N1CCN2C[C@H](c3ccc(F)c(C#N)c3C)OC[C@H]2C1 [Example 119, 6-fluoro-2-methyl-3-[(3S,9aR)-8-{[4-methyl-2-(1H-tetrazol-1-vl)pvrimidin-5-yl]acetyl}octahydropyrazino[2,1-c][1,4]oxazin-3-yl]benzonitrile] | 330 |
| Cc1c([C@@H]2CN3CCN(C(=O)Cc4cnc(-n5cnnn5)cn4)C[C@@H]3CO2)ccc2c1COC2=O [Example 123, 4-methyl-5-[(3R,9aR)-8-{[5-(1H-tetrazol-1-yl)pyrazin-2-yl]acetyl}octahydropyrazino[2,1-c] [1,4]oxazin-3-yl]-2-benzofuran-1(3H)-one] | 690 |
| N#Cc1c(F)ccc([C@@H]2CN3CCN(C(=O)Cc4cnc(-n5cnnn5)nc4)C[C@@H]3CO2)c1Cl [Example 125, 2-chloro-6-fluoro-3-[(3R,9aR)-8-{[2-(1H-tetrazol-1-yl)pyrimidin-5-yl]acetyl}octahydropyrazino[2,1-c][1,4]oxazin-3-yl]benzonitrile] | 60 |
